Measured values from paper PMC7714403 (JCI Insight, 2020).

How the values were obtained:
CK2a1 = CK2a1 (Homo sapiens, UniProt P68400); test: KiNativ, OCI cells live cell; format: cell-based; conditions: 2 h, labeling site Protein Kinase Domain, peptide […]
CaMK2d = CaMK2d (Homo sapiens, UniProt Q13557); test: KiNativ, OCI cells live cell; format: cell-based; conditions: 2 h, labeling site Lys1, peptide […]
Erk1 = Erk1 (Homo sapiens, UniProt P27361); test: KiNativ, OCI cells live cell; format: cell-based; conditions: 2 h, labeling site Lys2, peptide […]
PYK2 = PYK2 (Homo sapiens, UniProt Q14289); test: KiNativ, OCI cells live cell; format: cell-based; conditions: 2 h
CDK2 = CDK2 (Homo sapiens, UniProt P24941); test: KiNativ, OCI cells live cell; format: cell-based
NDR1, NDR2 = test: KiNativ, OCI cells live cell; format: cell-based, human; conditions: labeling site Activation Loop, peptide LSDFGLCTGLKK
GCK = molecular target: T1, GCK (Homo sapiens, UniProt Q12851); test: KdELECT binding assay; design: purchased Eurofins DiscoverX
T1 sequence (Q12851 1-820): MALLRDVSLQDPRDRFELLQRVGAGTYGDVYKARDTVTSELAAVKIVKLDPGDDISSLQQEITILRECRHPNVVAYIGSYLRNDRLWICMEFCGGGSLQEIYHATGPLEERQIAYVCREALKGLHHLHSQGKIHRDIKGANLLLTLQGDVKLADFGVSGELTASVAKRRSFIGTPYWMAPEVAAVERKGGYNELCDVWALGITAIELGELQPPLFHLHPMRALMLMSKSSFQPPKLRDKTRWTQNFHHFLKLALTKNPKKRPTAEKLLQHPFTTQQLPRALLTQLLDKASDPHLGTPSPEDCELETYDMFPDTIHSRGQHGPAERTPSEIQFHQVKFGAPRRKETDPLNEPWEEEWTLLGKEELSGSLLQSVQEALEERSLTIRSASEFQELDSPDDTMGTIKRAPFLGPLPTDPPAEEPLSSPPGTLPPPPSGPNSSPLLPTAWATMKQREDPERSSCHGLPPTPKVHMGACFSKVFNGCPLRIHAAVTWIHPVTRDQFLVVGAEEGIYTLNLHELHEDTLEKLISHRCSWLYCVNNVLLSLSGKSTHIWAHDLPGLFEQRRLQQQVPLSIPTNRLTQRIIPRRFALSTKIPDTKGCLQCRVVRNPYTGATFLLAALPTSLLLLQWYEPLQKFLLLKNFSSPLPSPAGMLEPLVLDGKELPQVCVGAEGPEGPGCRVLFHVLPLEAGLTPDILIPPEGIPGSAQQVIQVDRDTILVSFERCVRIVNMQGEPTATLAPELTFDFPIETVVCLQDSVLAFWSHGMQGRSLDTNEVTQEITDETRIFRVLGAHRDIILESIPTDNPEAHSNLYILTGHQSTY

IKKe = IKKe (Homo sapiens, UniProt Q14164); test: KiNativ, OCI cells live cell; format: cell-based; conditions: 2 h, labeling site Lys1, peptide […]
FLT3 ITD = FLT3 ITD (Homo sapiens, UniProt P36888, ITD); test: Kinase assay by Reaction Biology; format: biochemical; conditions: enzymatic kinase assay
ROCK1, ROCK2 = test: KiNativ, OCI cells live cell; format: cell-based, human
MST4, YSK1 = test: KiNativ, OCI cells live cell; format: cell-based, human; conditions: labeling site Lys2, peptide DIKAANVLLSEQGDVK
FLT3 D835H = molecular target: T2, FLT3 D835H (Homo sapiens, UniProt P36888, D835H); test: KdELECT binding assay
T2 construct: purchased Eurofins DiscoverX

FLT3 ITD/F691L = FLT3 ITD/F691L (Homo sapiens, UniProt P36888, F691L/ITD); test: KdELECT binding assay
JAK1 domain1 = molecular target: T3, JAK1 domain1 (Homo sapiens, UniProt P23458); test: KiNativ, OCI cells live cell; format: cell-based; conditions: labeling site Activation Loop, peptide QLASALSYLEDKDLVHGNVCTKNLLLAR
T3 construct: JAK1 domain1

JAK1 = molecular target: T4, JAK1 (Homo sapiens, UniProt P23458); test: KdELECT binding assay
T4 construct: purchased Eurofins DiscoverX

PRP4 = PRP4 (Homo sapiens, UniProt Q13523); test: KiNativ, OCI cells live cell; format: cell-based; conditions: 2 h, labeling site Lys2, peptide […]
PIK3CG = PIK3CG (Homo sapiens, UniProt P48736); test: KiNativ, OCI cells live cell; format: cell-based; conditions: 2 h, labeling site ATP, peptide […]
GSK3B = GSK3B (Homo sapiens, UniProt P49841); test: KiNativ, OCI cells live cell; format: cell-based; conditions: 2 h, labeling site Lys2, peptide […]
PIP5K3 = PIP5K3 (Homo sapiens, UniProt Q9Y2I7); test: KiNativ, OCI cells live cell; format: cell-based; conditions: labeling site ATP, peptide GGKSGAAFYATEDDRFILK
Chain of PIP5K3 (Q9Y2I7 whole entry): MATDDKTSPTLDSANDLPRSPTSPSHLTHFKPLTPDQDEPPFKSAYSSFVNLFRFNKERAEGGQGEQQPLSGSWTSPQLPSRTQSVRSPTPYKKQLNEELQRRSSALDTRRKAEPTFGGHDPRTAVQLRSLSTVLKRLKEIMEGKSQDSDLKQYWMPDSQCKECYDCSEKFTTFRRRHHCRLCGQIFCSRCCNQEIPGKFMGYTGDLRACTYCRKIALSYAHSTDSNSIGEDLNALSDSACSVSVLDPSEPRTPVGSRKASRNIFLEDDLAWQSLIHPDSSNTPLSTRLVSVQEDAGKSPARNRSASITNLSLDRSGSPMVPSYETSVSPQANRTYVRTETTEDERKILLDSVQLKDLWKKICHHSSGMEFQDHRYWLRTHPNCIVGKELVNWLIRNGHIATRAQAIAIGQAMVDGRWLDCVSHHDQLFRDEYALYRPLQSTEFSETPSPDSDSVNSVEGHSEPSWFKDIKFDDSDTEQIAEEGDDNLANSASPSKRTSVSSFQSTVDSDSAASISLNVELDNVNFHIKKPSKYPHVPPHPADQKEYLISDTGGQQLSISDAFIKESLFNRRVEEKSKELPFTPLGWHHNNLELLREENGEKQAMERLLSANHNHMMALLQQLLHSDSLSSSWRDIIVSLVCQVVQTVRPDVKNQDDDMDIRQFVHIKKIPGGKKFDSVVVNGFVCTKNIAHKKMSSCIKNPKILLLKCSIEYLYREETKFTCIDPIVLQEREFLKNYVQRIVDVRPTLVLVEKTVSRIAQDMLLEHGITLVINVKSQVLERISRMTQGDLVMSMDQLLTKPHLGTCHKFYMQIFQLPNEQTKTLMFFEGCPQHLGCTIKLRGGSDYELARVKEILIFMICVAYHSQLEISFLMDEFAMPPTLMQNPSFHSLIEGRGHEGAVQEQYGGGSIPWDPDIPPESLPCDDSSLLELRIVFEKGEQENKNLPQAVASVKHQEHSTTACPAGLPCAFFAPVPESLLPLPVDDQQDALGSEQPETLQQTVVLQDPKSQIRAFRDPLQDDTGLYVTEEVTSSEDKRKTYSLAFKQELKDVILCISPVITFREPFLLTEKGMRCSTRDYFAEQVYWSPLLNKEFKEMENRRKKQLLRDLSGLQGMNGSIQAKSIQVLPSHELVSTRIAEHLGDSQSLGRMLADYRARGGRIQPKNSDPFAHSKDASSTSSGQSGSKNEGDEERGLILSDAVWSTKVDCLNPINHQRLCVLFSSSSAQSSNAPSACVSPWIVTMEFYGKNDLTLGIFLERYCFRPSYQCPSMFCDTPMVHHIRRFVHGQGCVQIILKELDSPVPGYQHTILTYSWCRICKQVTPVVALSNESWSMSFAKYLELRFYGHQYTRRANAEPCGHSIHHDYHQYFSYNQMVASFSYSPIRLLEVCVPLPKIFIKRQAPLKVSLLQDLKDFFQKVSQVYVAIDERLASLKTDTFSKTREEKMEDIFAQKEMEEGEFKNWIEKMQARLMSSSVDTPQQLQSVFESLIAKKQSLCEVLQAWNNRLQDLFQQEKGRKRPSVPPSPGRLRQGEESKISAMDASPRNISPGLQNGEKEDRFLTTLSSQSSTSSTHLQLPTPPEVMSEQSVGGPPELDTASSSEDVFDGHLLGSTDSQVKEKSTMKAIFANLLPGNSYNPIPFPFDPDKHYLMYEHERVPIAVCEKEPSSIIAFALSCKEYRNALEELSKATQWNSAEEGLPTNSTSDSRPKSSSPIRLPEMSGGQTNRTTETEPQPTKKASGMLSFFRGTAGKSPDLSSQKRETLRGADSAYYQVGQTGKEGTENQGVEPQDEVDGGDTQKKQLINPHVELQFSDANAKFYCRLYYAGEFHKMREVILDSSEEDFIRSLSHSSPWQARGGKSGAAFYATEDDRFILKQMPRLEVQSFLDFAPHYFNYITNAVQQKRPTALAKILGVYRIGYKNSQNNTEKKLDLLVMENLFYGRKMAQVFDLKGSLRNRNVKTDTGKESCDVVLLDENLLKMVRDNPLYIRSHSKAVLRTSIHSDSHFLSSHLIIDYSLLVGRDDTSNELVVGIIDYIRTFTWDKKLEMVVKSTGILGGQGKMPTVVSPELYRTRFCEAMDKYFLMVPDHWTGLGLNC

Chain of PYK2 (Q14289 whole entry): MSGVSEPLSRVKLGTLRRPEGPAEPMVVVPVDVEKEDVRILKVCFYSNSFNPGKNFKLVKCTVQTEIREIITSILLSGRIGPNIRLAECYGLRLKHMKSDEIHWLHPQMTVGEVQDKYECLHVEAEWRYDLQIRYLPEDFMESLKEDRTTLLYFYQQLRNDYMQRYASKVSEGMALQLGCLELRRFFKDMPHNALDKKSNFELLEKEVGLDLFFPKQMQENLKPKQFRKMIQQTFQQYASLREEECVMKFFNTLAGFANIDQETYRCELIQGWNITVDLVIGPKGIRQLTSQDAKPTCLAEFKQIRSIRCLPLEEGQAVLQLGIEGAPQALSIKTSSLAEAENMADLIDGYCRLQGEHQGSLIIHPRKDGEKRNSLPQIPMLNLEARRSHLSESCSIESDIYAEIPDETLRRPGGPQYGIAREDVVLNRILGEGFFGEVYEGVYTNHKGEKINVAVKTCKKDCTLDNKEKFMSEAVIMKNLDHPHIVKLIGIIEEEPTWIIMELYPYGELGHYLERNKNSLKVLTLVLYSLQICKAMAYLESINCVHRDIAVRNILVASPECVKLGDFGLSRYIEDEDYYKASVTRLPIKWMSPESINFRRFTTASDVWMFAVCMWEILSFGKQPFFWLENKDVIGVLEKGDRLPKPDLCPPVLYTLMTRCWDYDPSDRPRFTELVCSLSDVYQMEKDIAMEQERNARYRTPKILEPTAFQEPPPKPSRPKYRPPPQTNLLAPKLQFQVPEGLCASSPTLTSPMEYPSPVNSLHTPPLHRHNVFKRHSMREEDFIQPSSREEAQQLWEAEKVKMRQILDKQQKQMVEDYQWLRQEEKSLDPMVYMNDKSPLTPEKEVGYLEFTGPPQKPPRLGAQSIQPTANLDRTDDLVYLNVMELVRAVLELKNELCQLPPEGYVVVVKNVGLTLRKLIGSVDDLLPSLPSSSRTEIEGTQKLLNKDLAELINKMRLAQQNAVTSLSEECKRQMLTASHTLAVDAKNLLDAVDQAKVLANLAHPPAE
Chain of CK2a1 (P68400 whole entry, the tested form may be a part): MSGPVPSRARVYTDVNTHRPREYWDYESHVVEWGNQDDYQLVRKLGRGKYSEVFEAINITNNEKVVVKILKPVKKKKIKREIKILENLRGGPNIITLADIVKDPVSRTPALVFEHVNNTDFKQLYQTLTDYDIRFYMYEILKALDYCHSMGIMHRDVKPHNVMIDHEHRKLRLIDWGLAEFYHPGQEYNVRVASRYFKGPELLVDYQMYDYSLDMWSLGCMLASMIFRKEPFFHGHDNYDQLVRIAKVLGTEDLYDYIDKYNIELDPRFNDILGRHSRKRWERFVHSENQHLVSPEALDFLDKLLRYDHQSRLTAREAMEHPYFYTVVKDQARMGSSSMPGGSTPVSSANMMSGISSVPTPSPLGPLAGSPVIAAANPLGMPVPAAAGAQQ
Chain of PIK3CG (P48736 whole entry): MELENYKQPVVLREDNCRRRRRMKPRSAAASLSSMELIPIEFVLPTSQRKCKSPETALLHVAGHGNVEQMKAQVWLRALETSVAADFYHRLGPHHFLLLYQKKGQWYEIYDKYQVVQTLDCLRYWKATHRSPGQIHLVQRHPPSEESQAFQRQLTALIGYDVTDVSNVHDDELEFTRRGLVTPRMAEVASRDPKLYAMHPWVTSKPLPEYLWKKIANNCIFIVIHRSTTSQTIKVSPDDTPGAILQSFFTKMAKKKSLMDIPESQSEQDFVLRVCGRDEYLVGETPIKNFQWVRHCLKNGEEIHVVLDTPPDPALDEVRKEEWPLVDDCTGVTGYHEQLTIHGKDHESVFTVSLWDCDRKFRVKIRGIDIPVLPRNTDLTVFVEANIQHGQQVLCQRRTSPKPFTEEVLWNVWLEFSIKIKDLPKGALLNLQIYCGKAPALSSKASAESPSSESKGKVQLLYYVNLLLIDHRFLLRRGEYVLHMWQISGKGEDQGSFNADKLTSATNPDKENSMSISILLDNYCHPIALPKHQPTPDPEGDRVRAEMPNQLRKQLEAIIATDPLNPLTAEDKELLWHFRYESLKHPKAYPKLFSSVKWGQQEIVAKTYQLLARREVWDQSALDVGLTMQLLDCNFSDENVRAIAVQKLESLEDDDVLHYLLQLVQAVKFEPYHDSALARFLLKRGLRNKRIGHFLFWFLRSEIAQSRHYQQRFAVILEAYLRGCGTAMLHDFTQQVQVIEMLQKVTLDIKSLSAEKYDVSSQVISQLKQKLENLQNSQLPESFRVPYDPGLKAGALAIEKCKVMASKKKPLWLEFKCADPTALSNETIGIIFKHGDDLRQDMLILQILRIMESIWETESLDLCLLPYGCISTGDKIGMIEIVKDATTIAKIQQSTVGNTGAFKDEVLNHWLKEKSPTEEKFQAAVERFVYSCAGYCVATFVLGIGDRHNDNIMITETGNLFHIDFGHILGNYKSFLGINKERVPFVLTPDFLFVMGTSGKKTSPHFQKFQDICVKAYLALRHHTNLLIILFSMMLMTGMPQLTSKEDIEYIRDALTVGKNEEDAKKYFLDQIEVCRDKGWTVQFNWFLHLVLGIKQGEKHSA
Chain of GSK3B (P49841 whole entry): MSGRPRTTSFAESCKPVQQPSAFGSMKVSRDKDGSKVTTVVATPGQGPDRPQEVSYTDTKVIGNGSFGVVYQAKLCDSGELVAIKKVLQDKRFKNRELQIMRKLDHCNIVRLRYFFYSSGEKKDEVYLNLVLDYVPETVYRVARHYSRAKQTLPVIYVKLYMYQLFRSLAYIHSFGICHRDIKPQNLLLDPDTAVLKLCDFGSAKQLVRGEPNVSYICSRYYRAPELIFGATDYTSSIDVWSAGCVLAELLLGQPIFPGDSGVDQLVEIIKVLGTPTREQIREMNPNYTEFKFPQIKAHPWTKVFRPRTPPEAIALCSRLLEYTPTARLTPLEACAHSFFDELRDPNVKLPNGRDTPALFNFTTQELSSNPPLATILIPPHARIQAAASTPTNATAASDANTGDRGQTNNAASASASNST

CN1CCN(Cc2ccc(Nc3ncc(Cl)c(Nc4ccccc4S(=O)(=O)N(C)C)n3)cc2)CC1 [TP-0903] was tested, and the inhibition at 0.1 µM (CK2a1) was -50.8%, the inhibition at 0.1 µM (CaMK2d) was 34.5% and the inhibition at 0.1 µM (Erk1) was 17.7%. It also gave an inhibition at 0.1 µM (PYK2; labeling site Activation Loop, peptide YIEDEDYYKASVTR) of 40.6%, an inhibition at 0.1 µM (PYK2; labeling site Lys1, peptide INVAVKTCK) of 80% and an Inhibition (CDK2; labeling site Lys1, peptide LTGEVVALKK) of 37.1%. It also gave an Inhibition (CDK2; labeling site Lys2, peptide DLKPQNLLINTEGAIK) of 41.4%, an Inhibition (NDR1, NDR2) of 18.3% and a Kd (GCK) of 1.8 nM. For the same compound, the inhibition at 0.1 µM (IKKe) was 30.5%, the IC50 (FLT3 ITD) was 3.9 nM and the Inhibition (ROCK1, ROCK2; labeling site Lys1, peptide VYAMKLLSK) was -8.5%. For the same compound, the Inhibition (ROCK1, ROCK2; labeling site Lys2, peptide DVKPDNMLLDK) was -30.5%, the Inhibition (MST4, YSK1) was 25.0% and the Kd (FLT3 D835H) was 1.9 nM. The Kd (FLT3 ITD/F691L) was 1.9 nM, the Inhibition (JAK1 domain1) was 87.3% and the Kd (JAK1) was 23 nM. It also gave an inhibition at 0.1 µM (PRP4) of -18.7%, an inhibition at 0.1 µM (PIK3CG) of 5.5% and an inhibition at 0.1 µM (GSK3B) of 32.3%. The Inhibition (PIP5K3) was 18.4%.
